# Laboratory results as given in US20220241378A1, “COMPOSITIONS AND METHODS FOR TREATMENT OF CHRONIC GRANULOMATOUS DISEASE” (priority 2019, published 2022).
# Key:
# [1] = system: C57BL/6 and p47phox-/- mice infected intranasally with A. fumigatus conidia; assay: Lung inflammation model: C57BL/6 and p47phox-/- mice infected intranasally with A. fumigatus; assay type: in vivo
# Protocol: (§1) In vivo models mimicking human pathology such as lung and gut inflammation were prepared. A model of lung inflammation was tested using C57BL/6 and p47phox-/- mice. The mice were infected with A. fumigatus intranasally and treated them with Tβ4 for 7 consecutive days starting a week after the infection. LC3-II (FIG. 1F) and DAPK1 (FIG. 1G) expression were both defective in p47phox-/- mice, but restored by Tβ4 and ablated (LC3-II) upon siTβ4 (FIGS. 10A and 10B). In addition, gut inflammation was tested using the same mouse model. Acute colitis in p47phox-/- mice was initiated by administering […] in drinking water for 7 days followed by 7 days of DSS-free autoclaved water. Subsequently, Tβ4 was therapeutically administered daily for 7 days, after DSS treatment, at the time at which mice started to lose weight. Consistent with previous findings (de Luca et al., 2014), LC3-II (FIG. 1H) and DAPK1 (FIG. 1I) expression were both defective in the colon ofp47phox-/- mice with colitis as opposed to WT mice but restored upon treatment with T134 (FIGS. 1H and 1I). DAPK1 expression in colon lysates of C57BL/6 and p47^phox-/- mice subjected to DSS-induced colitis for a week and treated intraperitoneally with 5 mg/kg Tβ4 for 7 consecutive days after DSS treatment, n=6-10 mice per group. Data are presented as mean ±SD and are representative of two experiments. Mice were categorized as Naive (uninfected or untreated mice) or None (infected mice). For immunoblotting, normalization was performed on mouse β-actin or Gapdh and corresponding pixel density or ratio is depicted. For immunofluorescence, nuclei were counterstained with DAPI. Photographs were taken with a high-resolution microscope (Olympus BX51), 40× and 100× magnification. LC3 mean fluorescence intensity (MFI) was measured with the ImageJ software. In FIGS. 1F-1H, n=6-10 mice per group. Data are presented as mean ±SD and are representative of two experiments. Naïve, uninfected or untreated mice. None, infected mice.
# Viable conidia from the A. fumigatus Af293 strain were obtained as described (De Luca et al., 2012). Mice were anesthetized in a plastic cage by inhalation of 3% isoflurane (Forane Abbot) in oxygen before intranasal instillation of 2×10^7 resting conidia/20 μl saline. For survival curves, p47^phox-/- mice were challenged with […] conidia/20 μl saline. Tβ4 was administered intraperitoneally (i.p.) at the dose of 5 mg/kg at an effective dose as described (Badamchian et al., Thymosin beta(4) reduces lethality and down-regulates inflammatory mediators in endotoxin-induced septic shock. Int Immunopharmacol, 2003 3(8): p. 1225-33), every day in concomitance with (days 0→7) or after (days 7→14) infection. DMOG (Merck Millipore) was administered i.p. at the dose of 8 mg/mouse concomitantly to the infection. For Hif1a silencing, each mouse received intranasal administration of 10 mg/kg unmodified siRNA [Duplex name mm.Ri.Hif1a.13.1 (IDT); 5′-[…]-3′; 3′-[…] -5′] and Tmsb4x silencing [Duplex name mm.Ri.Tmsb4x.13.1; 5′-[…]-3′; 3′-[…] -5′], or equivalent dose of nonspecific control siRNA duplex in a volume of 20 μl of duplex buffer (IDT). Intranasal siRNA was given once the day before infection and 1, 3 and 5 days after infection (Iannitti et al., 2013 Hypoxia promotes danger-mediated inflammation via receptor for advanced glycation end products in cystic fibrosis. Am J Respir Crit Care Med 188:1338-1350). It is known that lung-specific siRNA delivery can be achieved by intranasal administration without the use of viral vectors or transfection agents in vivo (Iannitti et al., 2013 Th17/Treg imbalance in murine cystic fibrosis is linked to indoleamine 2,3-dioxygenase deficiency but corrected by kynurenines. Am J Respir Crit Care Med 187:609-620). Mice were sacrificed 7 or 14 days post infection. Fungal burden was determined by qPCR and expressed as conidial equivalents (CE). Lung tissue was aseptically removed and homogenized in 3 ml of sterile saline. […]
# [2] = system: C57BL/6 and p47phox-/- mice subjected to DSS-induced colitis; assay: DSS-induced colitis in C57BL/6 and p47phox-/- mice; assay type: in vivo
# Protocol: as §1
# Dextran Sulfate Sodium (DSS) (2.5% wt/vol, […]; MP Biomedicals) was administered in drinking water ad libitum for 7 days. Fresh solution was replaced on day 3. Mice were injected with 5 mg/kg of Tβ4 every day intraperitoneally in concomitance with (days 0→7) or after (days 7→14) DSS administration. Control received the diluent alone. Weight loss, stool consistency, and faecal blood were recorded daily. Upon necropsy (7 and 14 days after DSS administration), tissues were collected for histology and cytokine analysis. Colonic sections were stained with Hematoxylin and Eosin. Colitis disease activity index was calculated daily for each mouse based on weight loss, occult blood, and stool consistency. A score of 1-4 was given for each parameter as described (McNamee et al., 2011 Interleukin 37 expression protects mice from colitis. Proc Natl Acad Sci U S A 108:16711-16716).
# For immunoblotting, organs or cells were lysed in RIPA buffer. The lysate was separated in sodium dodecyl sulfate-polyacrylamide gel electrophoresis (SDS-PAGE) and transferred to a nitrocellulose membrane. The membranes were incubated with the following primary antibodies at 4 °C overnight: anti-DAPK1 (antibodies-online.com), anti-Rubicon (Cell Signaling), anti-Tβ4 and anti-NLRP3 (Abcam), anti-LC3B (Cell Signaling or Abcam). Normalization was performed by probing the membranes with mouse anti-β-actin and anti-Gapdh antibodies (Sigma-Aldrich). Normalization was performed on mouse β-actin or Gapdh and corresponding pixel density is depicted. LC3-II band density was normalized to LC3-I to obtain ratio. Chemiluminescence detection was performed with LiteAblot Plus chemiluminescence substrate (EuroClone S.p.A.), using the ChemiDocTM XRS+ Imaging System (Bio-Rad) and quantification was obtained by densitometry image analysis using Image Lab 5.1 software (Bio-Rad).
# Real-time RT-PCR was performed using CFX96 Touch Real-Time PCR Detection System and SYBR Green chemistry (Bio-Rad). […]
# [3] = following Tβ4 treatment, thoracic lymph nodes, lung homogenates
# [4] = lung homogenates, ELISA (FIG. 4E)
substance,measurement,setting,value
Thymosin β4 [Tβ4],HIF-1α protein in lung,"[1]; CGD (p47phox-/-) mice, Tβ4 7 days concomitantly to infection (FIG. 2E, 2F)",restored
same,fungal growth in the lung,"[1]; both types of mice (C57BL/6 and p47phox-/-), 5 mg/kg i.p. (FIG. 4A)",reduced
same,pathogenic Th2/Th17/Th9 cell responses,[1]; [3],down-regulated
same,protective Th1/Treg cell responses,[1]; [3],promoted
same,NLRP3 expression in lung,[1]; infected mice (FIG. 4D),down-regulated
same,IFNy production,[1]; [4],reduced
same,IL-1β production,[1]; [4],reduced
same,IL-17A production,[1]; [4],reduced
same,TNF-α production,[1]; [4],reduced
same,"expression of genes of angiogenic signaling (Angpt2, Tie2, Vegfa), remodeling (Fgf2), hormonal regulation (Epo), cell migration (Cxcr4)",[1]; lungs of Aspergillus-infected mice (FIG. 3C),upregulated
same,gross lung pathology and histological examination,[1]; p47phox-/- mice after Tβ4 administration (FIG. 4C),No signs of inflammatory lung injury and granuloma formation
same,HIF-1α-dependent glycolytic genes,"[1]; p47phox-/- mice, 5 mg/kg Tβ4 (FIG. 8A)",not increased
same,Irg1 expression,"[1]; p47phox-/- mice, 5 mg/kg Tβ4 (FIG. 8B)",increased
same,LC3-II expression in lung,"[1]; p47phox-/- mice, 5 mg/kg i.p. 7 consecutive days starting a week after infection (FIG. 1F)",restored
same,DAPK1 expression in lung,"[1]; p47phox-/- mice, 5 mg/kg i.p. 7 consecutive days starting a week after infection (FIG. 1G)",restored
same,HIF-1α expression in the colon,[2]; 5 mg/kg i.p. 7 consecutive days after DSS (FIG. 2H),restoration
same,weight change,[2]; Tβ4 5 mg/kg i.p. after DSS (FIG. 5A),weight regain
same,disease activity index scores,[2]; Tβ4 5 mg/kg i.p. after DSS (FIG. 5B),decreased
same,inflammatory pathology and tissue architecture (H&E colon histology),[2]; Tβ4 5 mg/kg i.p. after DSS (FIG. 5C),amelioration
same,NLRP3 expression in colon,[2]; Tβ4 5 mg/kg i.p. after DSS (FIG. 5D),decreased
same,anti-inflammatory cytokines (TGF-β),[2]; colon (FIG. 5G),up-regulation
same,Cldn1 expression,[2]; colon (FIG. 5H),greatly promoted
same,Ocln expression,[2]; colon (FIG. 5H),greatly promoted
same,"inflammatory cytokine levels (IL-1β, MPO, TNF-α, IL-17A)",[2]; colon homogenates (FIGS. 5E and 5F),decreased
same,"expression of angiogenesis-related genes (Angpt2, Tie2, Vegfa, Fgf2, Epo, Cxcr4)",[2]; colon homogenates of p47phox-/- mice (FIG. 3D),upregulation
same,LC3-II expression in colon,"[2]; p47phox-/- mice with colitis, 5 mg/kg i.p. 7 consecutive days after DSS (FIG. 1H)",restored
same,DAPK1 expression in colon,"[2]; p47phox-/- mice with colitis, 5 mg/kg i.p. 7 consecutive days after DSS (FIG. 1I)",restored
